# Starred links: 1 amine or outer side, 2 acyl side, 3 side chain; linkers in the order of their positions; H or OH if unused. Positions of bridges follow the written chain, without caps; N, C: chain ends. Non-standard residues stand in square brackets, D forms with d. Residues, ends and D or L forms follow the SMILES beside them. *: point of attachment. X1 = CC[C@H](C)[C@@H](N[*:1])[C@@H](O)CC(=O)O[C@H](C(=O)[C@H](C)C(=O)[*:2])C(C)C; NMeY = CN[C@@H](Cc1ccc(O)cc1)C(=O)O; dNMeL = CN[C@H](CC(C)C)C(=O)O; pGlu = O=C1CC[C@@H](C(=O)O)N1; Pyruvoyl = CC(=O)C(=O)*; Cbz = O=C(OCc1ccccc1)*; Boc = CC(C)(C)OC(=O)*; Lac = C[C@H](O)C(=O)O
# Key:
# [1] = Cytotoxicity of didemnins (Table II); type: cell-based; conditions: for IC50: cytotoxicity
# [2] = system: HSV; test: Antiviral activities of didemnins, HSV/CV-1; type: cell-based; parameters: key: +++ = complete inhibition; ++ = strong inhibition; + = moderate inhibition; − = no inhibition
# [3] = system: CV-1; test: Cytotoxicity score in the HSV/CV-1 antiviral assay; conditions: scale 0 (least toxic) to 16 (toxic)
# [4] = system: P388 Murine Leukemia; test: Life extension vs. P388 murine leukemia in mice; type: in vivo
Compound,Inhibition (%) ([1]; Dose 0.25 ng/mL),Inhibition (%) ([1]; Dose 2.5 ng/mL),Inhibition (%) ([1]; Dose 25 ng/mL),Inhibition (%) ([1]; Dose 250 ng/mL),IC50 [1] [ng/mL],Activity ([2]; 10 ng/mL),Activity ([2]; 20 ng/mL),Activity ([2]; 50 ng/mL),Activity ([2]; 100 ng/mL),Cytotoxocity ([3]; 10 ng/mL),Cytotoxocity ([3]; 20 ng/mL),Cytotoxocity ([3]; 50 ng/mL),Cytotoxocity ([3]; 100 ng/mL),"T/C (% of Control, Life Extension) ([4]; Dose 0.025 mg/kg)","T/C (% of Control, Life Extension) ([4]; Dose 0.05 mg/kg)","T/C (% of Control, Life Extension) ([4]; Dose 1 mg/kg)"
"CC[C@H](C)[C@H]1NC(=O)[C@@H](NC(=O)[C@@H](CC(C)C)N(C)C(=O)[C@@H]2CCCN2C(=O)OC(C)(C)C)[C@@H](C)OC(=O)[C@H](Cc2ccc(OC)cc2)N(C)C(=O)[C@@H]2CCCN2C(=O)[C@H](CC(C)C)NC(=O)[C@@H](C)C(=O)[C@H](C(C)C)OC(=O)C[C@@H]1O [Boc-Pro-didemnin A (158), Boc-L-prolyl-didemnin A] (Boc-P[dNMeL]T[X1]LP[NMeY](Me); ester 3-C)",0,0,55,100,85,,,,,,,,,,,
"CC[C@H](C)[C@H]1NC(=O)[C@@H](NC(=O)[C@@H](CC(C)C)N(C)C(=O)[C@@H]2CCCN2C(=O)[C@H](C)OC(=O)[C@H](CCC(N)=O)NC(=O)OCc2ccccc2)[C@@H](C)OC(=O)[C@H](Cc2ccc(OC)cc2)N(C)C(=O)[C@@H]2CCCN2C(=O)[C@H](CC(C)C)NC(=O)[C@@H](C)C(=O)[C@H](C(C)C)OC(=O)C[C@@H]1O [Cbz-Gln-Didemnin B (161), N-Benzyloxycarbonyl-L-glutaminyl-didemnin B] (Cbz-Q[Lac]P[dNMeL]T[X1]LP[NMeY](Me); ester 5-C)",0,0,87,100,25,−,+,+,+,0,0,0,0,,,
"CC[C@H](C)[C@H]1NC(=O)[C@@H](NC(=O)[C@@H](CC(C)C)N(C)C(=O)[C@@H]2CCCN2C(=O)[C@H](C)OC(=O)[C@H](CCC(N)=O)NC(=O)OCc2ccccc2)[C@@H](C)OC(=O)[C@H](Cc2ccc(OC)cc2)N(C)C(=O)[C@@H]2CCCN2C(=O)[C@H](CC(C)C)NC(=O)[C@@H](C)C(=O)[C@H](C(C)C)OC(=O)C[C@@H]1OC(=O)[C@H](CCC(N)=O)NC(=O)OCc1ccccc1 [Cbz-Gln[Cbz-GlnIst^2]DB (162), di-(benzyloxycarbonyl)glutaminyl-didemnin B]",0,0,87,99,50,+,+,+,+++,0,0,0,0,,,
"CC[C@H](C)[C@H]1NC(=O)[C@@H](NC(=O)[C@@H](CC(C)C)N(C)C(=O)[C@@H]2CCCN2C(=O)[C@H](C)OC(=O)[C@@H]2CCC(=O)N2C(=O)OCc2ccccc2)[C@@H](C)OC(=O)[C@H](Cc2ccc(OC)cc2)N(C)C(=O)[C@@H]2CCCN2C(=O)[C@H](CC(C)C)NC(=O)[C@@H](C)C(=O)[C@H](C(C)C)OC(=O)C[C@@H]1O [Cbz-pGlu-Didemnin B (145), N-Benzyloxycarbonyl-L-pyroglutaminyl-didemnin B]",0,0,70,100,50,−,+,+,+,0,0,0,0,,,
"CC[C@H](C)[C@H]1NC(=O)[C@@H](NC(=O)[C@@H](CC(C)C)N(C)C(=O)[C@@H]2CCCN2C(=O)C(C)=O)[C@@H](C)OC(=O)[C@H](Cc2ccc(OC)cc2)N(C)C(=O)[C@@H]2CCCN2C(=O)[C@H](CC(C)C)NC(=O)[C@@H](C)C(=O)[C@H](C(C)C)OC(=O)C[C@@H]1O [Dehydrodidemnin B (6), Dehydrodidemnin B] (Pyruvoyl-P[dNMeL]T[X1]LP[NMeY](Me); ester 3-C)",95,100,100,100,0.2,+,+++,,,0,0,16,16,,,
"CC[C@H](C)[C@H]1NC(=O)[C@@H](NC(=O)[C@@H](CC(C)C)N(C)C(=O)[C@@H]2CCCN2C(=O)C(C)O)[C@@H](C)OC(=O)[C@H](Cc2ccc(OC)cc2)N(C)C(=O)[C@@H]2CCCN2C(=O)[C@H](CC(C)C)NC(=O)[C@@H](C)C(=O)[C@H](C(C)C)OC(=O)C[C@@H]1O (stereo partly shown) [Didemnin (B) (2), Didemnin B, reference compound]",0,40,100,100,7,+,+++,+++,,0,0,0,16,,,
"CC[C@H](C)[C@H]1NC(=O)[C@@H](NC(=O)[C@@H](CC(C)C)NC)[C@@H](C)OC(=O)[C@H](Cc2ccc(OC)cc2)N(C)C(=O)[C@@H]2CCCN2C(=O)[C@H](CC(C)C)NC(=O)[C@@H](C)C(=O)[C@H](C(C)C)OC(=O)C[C@@H]1O [Didemnin A (1), Didemnin A] (H-[dNMeL]T[X1]LP[NMeY](Me); ester 2-C)",0,0,70,100,75,−,+,+,+,0,0,0,0,,,
"CC[C@H](C)[C@H]1NC(=O)[C@@H](NC(=O)[C@@H](CC(C)C)N(C)C(=O)[C@@H]2CCCN2C(=O)[C@H](C)OC(=O)[C@H](CCC(N)=O)NC(=O)[C@@H]2CCC(=O)N2)[C@@H](C)OC(=O)[C@H](Cc2ccc(OC)cc2)N(C)C(=O)[C@@H]2CCCN2C(=O)[C@H](CC(C)C)NC(=O)[C@@H](C)C(=O)[C@H](C(C)C)OC(=O)C[C@@H]1O [Didemnin M (5), L-Pyroglutaminyl-L-glutaminyl-didemnin B] ([pGlu]Q[Lac]P[dNMeL]T[X1]LP[NMeY](Me); ester 6-C)",94,100,100,100,0.8,+,+++,,,0,0,16,16,,,
"CC[C@H](C)[C@H]1NC(=O)[C@@H](NC(=O)[C@@H](CC(C)C)N(C)C(=O)[C@@H]2CCCN2C(=O)[C@H](C)OC(=O)[C@@H](N)CCC(N)=O)[C@@H](C)OC(=O)[C@H](Cc2ccc(OC)cc2)N(C)C(=O)[C@@H]2CCCN2C(=O)[C@H](CC(C)C)NC(=O)[C@@H](C)C(=O)[C@H](C(C)C)OC(=O)C[C@@H]1O [Gln-Didemnin B, Glutaminyl-didemnin B] (H-Q[Lac]P[dNMeL]T[X1]LP[NMeY](Me); ester 5-C)",94,100,100,100,0.1,+++,,,,0,16,16,16,152 % of Control,171 % of Control,185 % of Control
"CC[C@H](C)[C@H]1NC(=O)[C@@H](NC(=O)[C@@H](CC(C)C)N(C)C(=O)[C@@H]2CCCN2C(=O)[C@H](C)OC(=O)[C@@H](N)CCC(N)=O)[C@@H](C)OC(=O)[C@H](Cc2ccc(OC)cc2)N(C)C(=O)[C@@H]2CCCN2C(=O)[C@H](CC(C)C)NC(=O)[C@@H](C)C(=O)[C@H](C(C)C)OC(=O)C[C@@H]1OC(=O)[C@@H](N)CCC(N)=O [Gln[GlnIst^2]-Didemnin B (160), Glutaminyl-glutaminyl-didemnin B]",0,0,87,100,50,+,+,+,+++,0,0,0,0,,,
"CC[C@H](C)[C@H]1NC(=O)[C@@H](NC(=O)[C@@H](CC(C)C)N(C)C(=O)[C@@H]2CCCN2)[C@@H](C)OC(=O)[C@H](Cc2ccc(OC)cc2)N(C)C(=O)[C@@H]2CCCN2C(=O)[C@H](CC(C)C)NC(=O)[C@@H](C)C(=O)[C@H](C(C)C)OC(=O)C[C@@H]1O [Prolyl-didemnin A (43), prolyl-didemnin A] (H-P[dNMeL]T[X1]LP[NMeY](Me); ester 3-C)",30,40,99,100,12,,,,,,,,,,,
"CC[C@H](C)[C@H]1NC(=O)[C@@H](NC(=O)[C@@H](CC(C)C)N(C)C(=O)[C@@H]2CCCN2C(=O)[C@H](C)OC(=O)[C@@H]2CCC(=O)N2)[C@@H](C)OC(=O)[C@H](Cc2ccc(OC)cc2)N(C)C(=O)[C@@H]2CCCN2C(=O)[C@H](CC(C)C)NC(=O)[C@@H](C)C(=O)[C@H](C(C)C)OC(=O)C[C@@H]1O [pGlu-Didemnin B (39), L-Pyroglutaminyl-didemnin B] ([pGlu][Lac]P[dNMeL]T[X1]LP[NMeY](Me); ester 5-C)",94,100,100,100,0.1,+,+++,,,0,0,16,16,,,

# From US6841530B2, “Semi-synthetic studies toward didemnin analogues” (The Board of Trustees of the University of Illinois, priority 1996, dated 2005)
